Legend:
[1] = tested on: HCT-116 (human colorectal carcinoma) cells; experiment: MTT cytotoxicity assay, HCT-116; type: cell-based; details: for Influence on cell growth / viability, HCT-116: 24 h, 0.01–1 µM range; for IC50: 24 h treatment, read-out: IC50 (nM ± SD) HCT-116
Description: (§1) HTC116 (human colorectal carcinoma), HepG2 (human hepatocellular carcinoma), MCF-7 (human breast cancer), 16-HBE (human bronchial epithelium) and Caco-2 (human colorectal carcinoma) cell lines were purchased from American Type Culture Collection, Rockville, MD, USA. All cell lines were grown in RPMI medium supplemented with L-glutamine (2 mM), 10% fetal bovine serum (FBS), penicillin (100 U/mL), streptomycin (100 µg/mL) and gentamicin (5 μg/mL). Cells were maintained in log phase by seeding twice a week at a density of 3 × 10^8 cells/L in humidified 5% CO2 atmosphere, at 37 °C. In all experiments, after plating, cells were allowed to adhere overnight and then treated with the compounds or vehicle alone (control cells), whereas Caco-2 cells were treated 15 days after confluence, at which time the cells are differentiated in normal intestinal-like cells. No differences were found between cells treated with DMSO 0.1% and untreated cells in terms of cell number and viability.
(§2) Cytotoxic activity of the organotin compounds against human tumor cell lines (HCT-116, HepG2 and MCF-7) and human normal cells (16-HBE and intestinal-like differentiated Caco2 cells) was determined using the MTT colorimetric assay based on the reduction of 3-(4,5-dimethyl-2-thiazolyl)bromide-2,5-diphenyl-2H-tetrazolium (MTT) to purple formazan using mitochondrial dehydrogenases of living cells, as reported. This method is commonly used to illustrate inhibition of cellular proliferation. Monolayer cultures were treated for 24 h with various concentrations (0.01-1 µM) of the drugs. Cisplatin was used for comparison. Briefly, all cell lines were seeded at 1.0 × 10^4 cells/well in 96-well plates containing 200 μL RPMI. When appropriated, cells were washed with fresh medium and incubated with the compounds in RPMI. After incubation, cells were washed, and 50 μL FBS-free medium containing 5 mg/mL MTT was added. The medium was discarded after a 2 h incubation at 37 °C by centrifugation, and formazan blue formed in the cells was dissolved in DMSO. The absorbance, measured at 570 nm in a microplate reader (Bio-RAD, Hercules, CA, USA) of MTT formazan of control cells was taken as 100% of viability. The growth inhibition activity of compounds was estimated by comparison with the not-treated control. The values for the inhibitory concentration for 50% of the tested compounds (IC50) were calculated using a sigmoidal model using GraphPad Prism 5.02 from GraphPad Software (San Diego, CA, USA). Each experiment was repeated three times in triplicate to obtain the mean values.

[2] = tested on: HepG2 (human hepatocellular cancer) cells; experiment: MTT cytotoxicity assay, HepG2; type: cell-based; details: for Influence on cell growth / viability, HepG2: 24 h, 0.01–1 µM range; for IC50: 24 h treatment, read-out: IC50 (nM ± SD) HepG2
Description: as §1, §2

[3] = tested on: MCF-7 (human breast cancer) cells; experiment: MTT cytotoxicity assay, MCF-7; type: cell-based; details: for Influence on cell growth / viability, MCF-7: 24 h, 0.01–1 µM range; for IC50: 24 h treatment, read-out: IC50 (nM ± SD) MCF-7
Description: as §1, §2

[4] = tested on: intestinal normal-like differentiated Caco-2 cells; experiment: MTT viability assay, normal-like differentiated Caco-2 cells; type: cell-based, human; details: 24 h; for Effect on cell survival, normal-like differentiated Caco-2 cells: MTT, reduction seen in the 1–10 μM range; for CC50: differentiated Caco-2, MTT, concentration lethal to 50% of the normal cells, read-out: Normal-Like Intestinal Cells LC50
Description: as §1
as §2, with “Monolayer cultures were treated for 24 h with various concentrations (0.01-1 µM) of the drugs.” left out
(§3) Formazan of control cells was taken as 100% viability and the 50% lethal concentrations of the synthesized complexes (LC50) were determined by plotting the graph of cell viability versus the concentrations. The selectivity index (SI) values were calculated for each compound by dividing the LC50 of normal differentiated Caco2 or 16-HBE cells by the IC50 of HCT-116 tumor cells. Each experiment was repeated three times in triplicate.

[5] = tested on: human bronchial epithelial cells (16-HBE); experiment: MTT viability assay, 16-HBE cells; type: cell-based; details: 24 h; for CC50: concentration lethal to 50% of the normal cells, read-out: 16-HBE Cells LC50; for Effect on cell survival, 16-HBE cells: reduction seen in the 1–10 μM range
Description: as §1
as §2, with “Monolayer cultures were treated for 24 h with various concentrations (0.01-1 µM) of the drugs.” left out
as §3

[6] = tested on: HCT-116 cells; experiment: Mitochondrial transmembrane potential, DiOC6 flow cytometry; type: cell-based, human; details: 24 h, control 3.2%
Description: Mitochondrial transmembrane potentials (Δψm) were assessed using flow cytofluorometry, with the cationic lipophilic dye 3,3′-dihexyloxacarbocyanine iodide(3) (DiOC6) (Molecular Probes, Inc., Life Technologies Italia, Monza, Italy), which accumulates in the mitochondrial matrix. Changes in mitochondrial membrane potential are indicated by a reduction in the DiOC6-induced fluorescence intensity. After 24 h treatment, cells were incubated with DiOC6 at a 40 nmol/L final concentration, for 15 min at 37 °C. After centrifugation, cells were washed with phosphate buffer saline (PBS) and suspended in 500 μL PBS. Then, samples of 1.0 × 10^4 cells were subjected to FACS analysis.

[7] = tested on: HCT-116 cells; experiment: Intracellular ROS, DCFH-DA flow cytometry; type: cell-based, human; details: 24 h, control 1.9%
Description: ROS level was monitored by measuring fluorescence changes that resulted from intracellular oxidation of 2′,7′-dichlorofluorescin diacetate (DCFH-DA). DCFH-DA, at 10 μM final concentration, was added to the cell medium 30 min before the end of the treatment. The cells were collected using centrifugation for 5 min at 2000 rpm at 4 °C, washed, suspended in PBS and immediately subjected to FACS analysis. At least 1 × 10^4 cells were analyzed for each sample.

[8] = tested on: HCT-116 cells; experiment: Cell cycle analysis, propidium iodide flow cytometry; type: cell-based, human; details: HCT-116, 24 h of treatment
Description: Cell cycle stage was analyzed using flow cytometry. Aliquots of 1.0 × 10^6 cells were harvested using centrifugation, washed with PBS and incubated in the dark in a PBS solution containing Triton X100 (0.1%, v/v), 20 μg/mL propidium iodide (PI) and 200 µg/mL RNase, for 30 min, at room temperature. Then, samples were immediately subjected to FACS analysis. At least 1 × 10^4 events were analyzed for each sample.

[9] = tested on: p53; experiment: Western blot, p53 level in HCT 116 cells; type: cell-based, human; details: 24 h, immunoblotting
Description: (§4) After treatment with the compound, protein extracts were prepared and equal amounts of protein samples (80 μg/lane), subjected to SDS-PAGE, were transferred to nitrocellulose membrane as previously reported. The immunoblot was incubated overnight at 4 °C with blocking solution (5% skim milk), followed by incubation with anti-p21 (F-5, Cat No SC-6246 Santa Cruz Biotechnology) or anti-p53 (DO-1, Cat No SC-126, Santa Cruz Biotechnology) for 1 h at room temperature. Blots were washed two times with Tween 20/Tris-buffered saline (TTBS) and incubated with a 1:2000 dilution of horseradish peroxidase (HRP)-conjugated anti-IgG antibody (Dako Denmark, Glostrup, Denmark) for 1 h at room temperature. Blots were again washed five times with TTBS and then developed using enhanced chemiluminescence (Amersham Life Science, Arlington Heights, IL, USA.). Immunoreactions were also performed using β-actin antibody as loading controls.

[10] = tested on: p21^WAF1; experiment: Western blot, p21WAF1 level in HCT 116 cells; type: cell-based, human; details: 24 h, immunoblotting
Description: as §4

Compound | Influence on cell growth / viability, HCT-116 [1] | IC50 [1] | Influence on cell growth / viability, HepG2 [2] | IC50 [2] | Influence on cell growth / viability, MCF-7 [3] | IC50 [3] | Effect on cell survival, normal-like differentiated Caco-2 cells [4] | CC50 [4] | CC50 [5] | Effect on cell survival, 16-HBE cells [5] | Cells with dissipated mitochondrial membrane potential ([6]; 0.1 μM) | AY, ROS production (DCFH-DA fluorescent cells) ([7]; 0.1 μM) | Effect on cell cycle distribution [8] | Effect on level of p53 [9] | Effect on level of p21 [10] | Cells with dissipated mitochondrial membrane potential ([6]; 20 μM) | AY, ROS production (DCFH-DA fluorescent cells) ([7]; 20 μM)
[CH3][Sn]([CH3])([CH3])[O]c1ccn2ncnc2n1 [Compound 1, Me3Sn(5tpO)] | no influence on cell growth | > 1000 nM | no influence on cell growth | > 1000 nM | no influence on cell growth | > 1000 nM |  |  |  |  |  |  |  |  |  |  | 
CCC[CH2][Sn]([CH2]CCC)([CH2]CCC)[O]c1ccn2ncnc2n1 [Compound 2, n-Bu3Sn(5tpO)] |  | 70 ± 8 nM |  | 70 ± 6 nM |  | 233 ± 21 nM | reduction of the cell survival | 6000 ± 400 nM | 17000 ± 1000 nM | reduction of the cell survival | 23.5% | 22.5% | block of cell duplication in the G0/G1 phase | did not vary | did not vary |  | 
Cc1cc([O][Sn]([CH3])([CH3])[CH3])n2ncnc2n1 [Compound 3, Me3Sn(mtpO)] | no influence on cell growth | > 1000 nM | no influence on cell growth | > 1000 nM | no influence on cell growth | > 1000 nM |  |  |  |  |  |  |  |  |  |  | 
Ph3Sn(HtpO2) [Compound 6] |  | 60 ± 5 nM |  | 63 ± 5 nM |  | 102 ± 9 nM | did not affect the cell viability at any assayed concentration |  |  | did not affect the cell viability at any assayed concentration | 25.1% | 25.3% | cell cycle arrest in phase G2/M |  |  |  | 
n-Bu3Sn(HtpO2) [Compound 5] |  | 101 ± 11 nM |  | 117 ± 10 nM |  | 487 ± 47 nM | reduction of the cell survival | 12000 ± 1000 nM | 22000 ± 1000 nM | reduction of the cell survival | 18.3% | 20.2% | block of cell duplication in the G0/G1 phase | did not vary | did not vary |  | 
CCC[CH2][Sn]([CH2]CCC)([CH2]CCC)[O]c1cc(C)nc2ncnn12 [Compound 4, n-Bu3Sn(mtpO)] |  | 34 ± 3 nM |  | 53 ± 6 nM |  | 118 ± 10 nM | reduction of the cell survival | 5000 ± 400 nM | 11000 ± 1000 nM | reduction of the cell survival | 28.5% | 27.3% | block of cell duplication in the G0/G1 phase | did not vary | did not vary |  | 
N.N.[Cl][Pt][Cl] [Cisplatin, reference compound] |  | 46000 nM |  | 65000 nM |  | 10000 nM |  |  |  |  |  |  |  |  |  | 17.4% | 23.5%
